From ChEMBL document CHEMBL1909569 (Bioorg Med Chem Lett, 2011)
Values after ≈ are worked out from the molar mass of the structure shown.

How the values were obtained:
[1] = tested on: Mycobacterium tuberculosis; assay: Antimicrobial activity against non-replicating Mycobacterium tuberculosis after 11 days by luminescence based low oxygen recovery assay; format: functional; settings: 264 h
[2] = target: T1, PXR (nuclear receptor subfamily 1 group I member 2) (Homo sapiens, UniProt O75469); assay: (§1) Activation of human PXR in DPX2 cells after 24 hrs by microplate reader relative to control; format: ADME, cell-based; settings: human, DPX2 cells; read-out: FC
T1 sequence (O75469 whole entry): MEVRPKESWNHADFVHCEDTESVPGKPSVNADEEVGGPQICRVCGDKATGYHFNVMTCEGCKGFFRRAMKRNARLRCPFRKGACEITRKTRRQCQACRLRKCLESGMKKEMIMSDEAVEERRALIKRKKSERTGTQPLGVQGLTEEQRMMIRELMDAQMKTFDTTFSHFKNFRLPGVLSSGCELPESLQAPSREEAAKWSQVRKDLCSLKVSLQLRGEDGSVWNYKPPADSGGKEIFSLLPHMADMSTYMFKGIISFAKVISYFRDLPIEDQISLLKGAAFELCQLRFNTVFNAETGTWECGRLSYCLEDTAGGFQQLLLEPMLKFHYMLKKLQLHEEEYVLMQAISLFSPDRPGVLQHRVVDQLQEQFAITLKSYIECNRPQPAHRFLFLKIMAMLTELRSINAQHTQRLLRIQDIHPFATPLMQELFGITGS

[3] = target: T2, Nuclear receptor subfamily 1 group I member 2 (Homo sapiens, UniProt O75469); assay: as §1; format: ADME, cell-based
T2 sequence (O75469 whole entry): T1 sequence (O75469 whole entry)

[4] = tested on: Mycobacterium tuberculosis; assay: Antimicrobial activity against replicating Mycobacterium tuberculosis after 8 days by micro plate alamar blue assay; format: functional; settings: 192 h
[5] = target: T2, Nuclear receptor subfamily 1 group I member 2; assay: Activation of human PXR in DPX2 cells up to 100 uM after 24 hrs by microplate reader relative to control; format: ADME, cell-based
[6] = target: T3, DNA-directed RNA polymerase subunit beta (Mycobacterium tuberculosis) (UniProt P9WGY9); assay: (§2) Inhibition of wild type Mycobacterium tuberculosis RNA polymerase after 10 mins using ribo green staining by rolling circle transcription assay; design: unit not given here
T3 sequence (whole entry): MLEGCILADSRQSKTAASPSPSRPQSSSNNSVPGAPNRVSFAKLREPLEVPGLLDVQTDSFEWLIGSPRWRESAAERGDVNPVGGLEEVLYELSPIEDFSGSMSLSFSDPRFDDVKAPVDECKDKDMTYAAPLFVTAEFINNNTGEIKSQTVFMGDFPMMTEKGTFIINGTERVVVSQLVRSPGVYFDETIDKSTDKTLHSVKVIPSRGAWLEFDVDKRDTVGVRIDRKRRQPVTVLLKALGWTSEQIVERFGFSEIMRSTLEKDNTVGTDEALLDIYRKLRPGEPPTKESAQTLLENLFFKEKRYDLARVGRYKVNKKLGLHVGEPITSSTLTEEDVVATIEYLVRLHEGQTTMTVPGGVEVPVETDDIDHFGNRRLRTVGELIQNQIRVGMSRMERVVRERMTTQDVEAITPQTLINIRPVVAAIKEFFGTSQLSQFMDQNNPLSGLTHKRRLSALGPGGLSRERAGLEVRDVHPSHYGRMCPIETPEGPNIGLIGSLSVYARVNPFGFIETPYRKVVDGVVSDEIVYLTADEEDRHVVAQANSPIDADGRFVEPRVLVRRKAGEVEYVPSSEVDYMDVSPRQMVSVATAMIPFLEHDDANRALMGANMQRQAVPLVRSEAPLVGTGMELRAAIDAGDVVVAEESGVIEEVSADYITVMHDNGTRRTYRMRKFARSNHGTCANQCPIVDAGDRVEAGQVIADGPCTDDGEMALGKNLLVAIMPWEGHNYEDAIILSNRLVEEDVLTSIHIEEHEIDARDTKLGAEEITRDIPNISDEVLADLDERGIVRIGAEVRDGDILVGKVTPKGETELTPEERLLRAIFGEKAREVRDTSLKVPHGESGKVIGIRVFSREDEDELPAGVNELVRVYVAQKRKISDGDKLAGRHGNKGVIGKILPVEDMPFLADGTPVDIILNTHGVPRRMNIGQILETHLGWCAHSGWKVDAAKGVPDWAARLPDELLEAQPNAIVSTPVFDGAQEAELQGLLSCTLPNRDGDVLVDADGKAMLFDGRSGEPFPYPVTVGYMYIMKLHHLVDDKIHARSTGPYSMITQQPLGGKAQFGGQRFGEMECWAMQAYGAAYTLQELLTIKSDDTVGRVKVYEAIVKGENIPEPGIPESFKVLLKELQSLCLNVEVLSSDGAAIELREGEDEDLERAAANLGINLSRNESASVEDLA

[7] = target: T4, DNA-directed RNA polymerase subunit beta (Mycobacterium tuberculosis, UniProt P9WGY9); assay: as §2
T4 sequence (P9WGY9 whole entry): T3 sequence (whole entry)

[8] = tested on: Escherichia coli; assay: Antimicrobial activity against Escherichia coli EC2880 mutant after 16 to 20 hrs; format: functional
[9] = tested on: Escherichia coli; assay: Antimicrobial activity against wild type Escherichia coli DH5[alpha] after 16 to 20 hrs; format: functional
[10] = tested on: Escherichia coli; assay: Antimicrobial activity against wild type Escherichia coli TG2 after 16 to 20 hrs; format: functional
[11] = target: T3, DNA-directed RNA polymerase subunit beta (Mycobacterium tuberculosis); assay: Ratio of compound IC50 to Rifamycin S IC50 for wild type Mycobacterium tuberculosis RNA polymerase

Compound	MIC90 [1]	fold induction at 24 h [2]	EC50 [3]	MIC90 [4]	EC50 [5]	logIC50 [6]	IC50 [7]	MIC90 [8]	MIC90 [9]	MIC90 [10]	Ratio IC50 [11]
CNc1c(C)c2c3c4c(O)c(/C=N/N5CCN(C)CC5)c(c(O)c14)NC(=O)/C(C)=C\C=C\[C@H](C)[C@H](O)[C@@H](C)[C@@H](O)[C@@H](C)[C@H](OC(C)=O)[C@H](C)[C@@H](OC)/C=C/O[C@@](C)(O2)C3=O	> 19.1 µM	8.9	4100 nM	4 µM (≈ 3.34 µg/mL)	–	–	–	–	–	–	–
CO[C@H]1/C=C/O[C@@]2(C)Oc3c(c4c5c(nn(C)c5c3C)C(=C(/C=N/N3CCN(C)CC3)C4=O)NC(=O)/C(C)=C\C=C\[C@H](C)[C@H](O)[C@@H](C)[C@@H](O)[C@@H](C)[C@H](OC(C)=O)[C@@H]1C)C2=O	> 19.3 µM	–	–	> 4.8 µM	Not Active	–	–	–	–	–	–
CNc1c(C)c2c3c4c1C(=O)C(=C(/C=N/N1CCN(C)CC1)C4=O)NC(=O)/C(C)=C\C=C\[C@H](C)[C@H](O)[C@@H](C)[C@@H](O)[C@@H](C)[C@H](OC(C)=O)[C@H](C)[C@@H](OC)/C=C/O[C@@](C)(O2)C3=O	> 19.2 µM	6.9	2100 nM	3.64 µM (≈ 3.04 µg/mL)	–	–	–	–	–	–	–
CO[C@H]1/C=C/O[C@@]2(C)Oc3c(C)c(NC4CCCCCC4)c4c(c3C2=O)C(=O)C=C(NC(=O)/C(C)=C\C=C\[C@H](C)[C@H](O)[C@@H](C)[C@@H](O)[C@@H](C)[C@H](OC(C)=O)[C@@H]1C)C4=O	> 20.2 µM	–	–	2.2 µM (≈ 1.74 µg/mL)	–	1.19	15400 nM	> 12.5 µM	> 100 µM	> 100 µM	–
CO[C@H]1/C=C/O[C@@]2(C)Oc3c(C)c(OS(=O)(=O)c4ccc(C)cc4)c4c(c3C2=O)C(=O)C=C(NC(=O)/C(C)=C\C=C\[C@H](C)[C@H](O)[C@@H](C)[C@@H](O)[C@@H](C)[C@H](OC(C)=O)[C@@H]1C)C4=O	3 µM (≈ 2.55 µg/mL)	–	–	0.2 µM (≈ 0.17 µg/mL)	–	-1.68	21 nM	3.12 µM (≈ 2.66 µg/mL)	> 100 µM	> 100 µM	2
CO[C@H]1/C=C/O[C@@]2(C)Oc3c(C)c(O)c4c(c3C2=O)C(=O)C(/C=N/N2CCN(C)CC2)=C(NC(=O)/C(C)=C\C=C\[C@H](C)[C@H](O)[C@@H](C)[C@@H](O)[C@@H](C)[C@H](OC(C)=O)[C@@H]1C)C4=O [RIFAMPIN S]	0.5 µM (≈ 0.41 µg/mL)	–	–	0.07 µM (≈ 0.0575 µg/mL)	–	-1.88	13 nM	0.1 µM (≈ 0.0821 µg/mL)	25 µM (≈ 20.5 µg/mL)	12.5 µM (≈ 10.3 µg/mL)	–
